Source: patent publication US4889855A, “Heterocyclic compounds and their preparation and use” (priority 1987, dated 1989)
One block for each molecule: values may come before it.

Tests used:
[1] = system: NMDA (N-methyl-D-aspartate) receptors; settings: background; cited from earlier work
quisqualate receptor [2] = assay: 3H-AMPA binding (Test 1); settings: displacement of 50% of the specific binding of 3H-AMPA (5 nM), rat cerebral cortical membranes, 0° C., 30 min
From the text: The quisqualate receptor binding activity of the compounds of the present invention can be illustrated by determining their capability for displacing radioactively labelled 2-amino-3hydroxy-5-methyl-4-isoxazolepropionic acid (AMPA) from the quisqualatee type receptors.
The displacement activity of the compounds may be shown by determining the IC50 value which represents the concentration (μg/ml) which causes a displacement of 50% of the specific binding of ^3 H-AMPA.
^3 H-AMPA binding (Test 1)
500 μl of thawed rat cerebral cortical membrane homogenate in Tris-HCl (30 mM), CaCl2 (2.5 mM) and KSCN (100 mM) pH 7.1 were incubated at 0° C. for 30 min. with 25μl ^3 H-AMPA (5 nM final concentration) and the test compound and buffer. Nonspecific binding was determined by incubation with L-glutamic acid (600 μM final concentration). The binding reaction was terminated by adding 5 ml of ice-cold buffer followed by filtration through Whatman GF/C glass fibre filters and 2×5 ml wash with ice-cold buffer. Bound radioactivity was measured by scintillation counting. IC50 was determined by Hill analysis of at least four concentrations of test compound.

NMDA receptor = assay: Inhibition of NMDA stimulated 3H-GABA release from cultured cerebral cortex interneurons (Test 3); type: cell-based; settings: inhibits 50% of NMDA (3 μg/ml) induced 3H-GABA release, mouse cerebral cortex interneurons
From the text: The NMDA antagonistic properties of the compounds is illustrated by determining their capability to antagonize NMDA stimulated ^3 H-GABA release from cultured mouse cortex neurons.
The NMDA antagonistic activity of the compounds may be shown by determining the IC50 value, which represents the concentration (μg/ml) which inhibits 50% of NMDA induced ^3 H-GABA release.
Inhibition of NMDA stimulated ^3 H-GABA release from cultured mouse cerebral cortex interneurons (Test 3) Release experiments are performed using the model described by Drejer et al. (Life Sci. 38, 2077 (1986)). To cerebral cortex interneurons cultured in petri dishes (30 mm) are added 100 μg/ml 3-vinyl-GABA one […] before the experiment in order to inhibit degradation of GABA in the neurons. 30 min before the experiment 5 μCi ^3 H-GAGA is added to each culture and after this preloading period the cells are washed twice with a HEPES (N-2 Hydroxyethylpiperazine-N'-2-ethanesulfonic acid) buffered saline (HBS) containing 10 mM HEPES, 135 mM NaCl, 5 mM KCl, 0.6 mM MgSO4, 1.0 mM CaCl2 and 6 mM D-glucose; pH 7 and placed in a superfusion system. This system consists of a peristaltic pump continuously delivering thermostated 37° C. superfusion medium from a reservoir to the top of a slightly-tilted petri dish. The cell monolayer at the bottom of the dish is covered with a piece of nylon mesh to facilitate dispersion of medium over the cell layer. The medium is continuously collected from the lower part of the dish and delivered to a fraction collector. Initially, the cells are superfused with HBS for 15 min (flow rate 2 ml/min). Then cells are stimulated for 30 sec every 4 min by changing the superfusion medium from HBS to a corresponding medium containing NMDA and antagonists according to the following scheme: […]
stimulation no. 1: 3 μg/ml NMDA stimulation no. 2: 3 μg/ml NMDA+0.3 μg/ml antagonist stimulation no. 3: 3 μg/ml NMDA+3 μg/ml antagonist
Test substances are dissolved in water or 48% ethanol. The final ethanol concentration in the assay must not exceed 0.1%.
The release of ^3 H-GABA in the presence of NMDA (stimulated relase in cpm) are corrected for the mean basal release (cpm) before and after the stimulation.
The stimulated release in the presence of antagonists are expressed relative to the stimulated release by NMDA alone and the IC50 value for the antagonist is calculated (the concentration (μg/ml) of the test substance which inhibits 50% of the NMDA induced ^3 H-GABA release) either from a dose response curve or from the formula: [formula] where Co is stimulated release in control assays and Cx is the stimulated release in the test assay (the calculation assumes normal mass-action interaction). 25-75% inhibition of the NMDA stimulation must be obtained, before calculation of IC50.

quisqualate receptor [3] = assay: Antagonism of quisqualic acid induced 22Na+-release from striatal slices (Test 2); type: cell-based; settings: reduces quisqualic acid (2 μg/ml) stimulated 22Na+ efflux by 50%, rat striatal slices
Method: The quisqualate antagonism is measured by determining the EC50 value which represents the concentration which reduces the rate of quisqualic acid stimulated sodium efflux by 50%.
Antagonism of quisqualic acid induced ^22 Na^+ -release (Test 2)
Slices from rat striatum were preincubated with ^22 Na^+ for 30 min. After the ^22 Na^+ loading period, the slices were successively and every minute transferred through a series of tubes, each containing 1.5 ml of a non-radioactive physiological solution saturated with O2, with the help of a basket shaped sieve. Quisqualic acid (2 μg/ml) was present in the last 5 tubes and the compound to be tested was present in the same 5 tubes plus 3 tubes before. The amount of radioactivity in each washout tube as well as that left in the slices at the end of the experiment was measured by scintillation counting. EC50 -values were calculated by Hill analysis from at least three different concentrations of test compound as the concentration of test compound which reduces the efflux rate of ^22 Na^+ -ions to 50% of the efflux rate in the absence of test compound.

kainate receptors = settings: background; cited from earlier work
quisqualate receptors = settings: background; cited from earlier work

Compound: O=C(O)[C@@H]1CCCN[C@H]1C(=O)O (relative stereo) [trans-2,3-PDA, trans-2,3-piperidine dicarboxylic acid]
agonist activity on NMDA receptors [1]: strong to moderate agonist activity

Compound: O=[N+]([O-])c1cccc2c1c([N+](=O)[O-])cc1nc(O)c(O)nc12 [2,3-Dihydroxy-6,7-dinitrobenzo(f)quinoxaline]
Test 1 IC50 (quisqualate receptor [2]): 0.06 mg/L
Test 3 IC50 (NMDA receptor): 0.3 mg/L
Test 2 EC50 (quisqualate receptor [3]): 2.8 mg/L

Compound: O=[N+]([O-])c1cc2nc(O)c(O)nc2c2c([N+](=O)[O-])cccc12 [2,3-Dihydroxy-6,10-dinitrobenzo(f)quinoxaline]
Test 1 IC50 (quisqualate receptor [2]): 0.85 mg/L
Test 3 IC50 (NMDA receptor): 0.97 mg/L

Test 1 IC50 (quisqualate receptor [2]): 0.69 mg/L
Test 3 IC50 (NMDA receptor): 0.39 mg/L
Test 2 EC50 (quisqualate receptor [3]): 14 mg/L
Compound: O=[N+]([O-])c1cc2nc(O)c(O)nc2c2ccccc12 [2,3-Dihydroxy-6-nitrobenzo(f)quinoxaline]

Test 1 IC50 (quisqualate receptor [2]): 0.61 mg/L
Test 3 IC50 (NMDA receptor): 1.5 mg/L
Compound: O=[N+]([O-])c1cc2nc(O)c(O)nc2c2cccnc12 [2,3-Dihydroxy-6-nitropyrido(2,3-f)quinoxaline]

Compound: N[C@@H](CCC(=O)NCC(=O)O)C(=O)O [3-glutamyl-glycine]
antagonism / selectivity at kainate receptors (kainate receptors): some selectivity for kainate receptors

Test 1 IC50 (quisqualate receptor [2]): 1.1 mg/L
Test 2 EC50 (quisqualate receptor [3]): 23 mg/L
Compound: Nc1cc2nc(O)c(O)nc2c2ccccc12 [6-Amino-2,3-dihydroxybenzo(f)quinoxaline]

Test 1 IC50 (quisqualate receptor [2]): 9.2 mg/L
Test 3 IC50 (NMDA receptor): 0.25 mg/L
Compound: O=[N+]([O-])c1cccc2c(Br)cc3nc(O)c(O)nc3c12 [6-bromo-2,3-dihydroxy-10-nitrobenzo(f)quinoxaline]

Test 1 IC50 (quisqualate receptor [2]): 0.17 mg/L
Test 3 IC50 (NMDA receptor): 0.092 mg/L
Compound: O=[N+]([O-])c1cc2nc(O)c(O)nc2c2c1CCCC2 [7,8,9,10-Tetrahydro-2,3-dihydroxy-6-nitrobenzo(f)quinoxaline]

Compound: Cc1onc(O)c1CC(N)C(=O)O (stereo not drawn) [AMPA, 2-amino-3-hydroxy-5-methyl-4-isoxazolepropionic acid]
agonist activity on quisqualate receptors (quisqualate receptors): potent agonists

Compound: N[C@H](CCCC(=O)O)C(=O)O [D-2-amino-adipic acid]
antagonist activity on NMDA receptors [1]: moderate antagonist activity

Compound: N[C@H](CCCCCP(=O)(O)O)C(=O)O [D-APH, 2-amino-7-phosphonoheptanoic acid]
antagonist activity on NMDA receptors [1]: most potent and selective antagonists

Compound: N[C@H](CCCP(=O)(O)O)C(=O)O [D-APV, 2-amino-5-phosphono-valeric acid]
antagonist activity on NMDA receptors [1]: most potent and selective antagonists

Compound: N[C@H](CCC(=O)O)C(=O)O [D-glutamic acid]
agonist activity on NMDA receptors [1]: strong to moderate agonist activity

Compound: CCOC(=O)CCC(N)C(=O)OCC (stereo not drawn) [GDEE, Glutamic acid diethyl esteer]
antagonist activity at quisqualate receptors (quisqualate receptors): selective but very weak antagonist
antagonism / selectivity at kainate receptors (kainate receptors): relatively insensitive to antagonism

Compound: N[C@H](C(=O)O)c1cc(=O)[nH]o1 [Ibotenic acid]
agonist activity on NMDA receptors [1]: strong to moderate agonist activity

Compound: N[C@@H](CCC(=O)O)C(=O)O [L-glutamic acid]
agonist activity on quisqualate receptors (quisqualate receptors): potent agonists

Compound: N[C@@H](CCS(=O)(=O)O)C(=O)O [L-homocysteic acid]
agonist activity on NMDA receptors [1]: strong to moderate agonist activity

Compound: N[C@H](CCC[C@H](N)C(=O)O)C(=O)O [diaminopimelic acid]
antagonist activity on NMDA receptors [1]: moderate antagonist activity

Compound: N[C@@H](Cn1oc(=O)[nH]c1=O)C(=O)O [quisqualic acid]
agonist activity on quisqualate receptors (quisqualate receptors): activated selectively
